Patent US20250129012A1, “ANTI-INFLAMMATORY AND ANALGESIC COMPOUNDS AND USE THEREOF” (JIANGSU ATOM BIOSCIENCE AND PHARMACEUTICAL CO., LTD., priority 2021, published 2025)
Marks after values point to notes of the source that are not given here.

What was measured:
Type in all cases: in vivo, SD rats
IL-6 = assay: Inflammatory factor experiment A: IL-6 in gouty arthritis rats; settings: synovial tissue of knee joints; dose 0.6 mg/kg gavage; day 10
Protocol: (§1) Compounds 14, 17 and 26 were prepared by grinding with 0.5% CMC-Na before administration and into a suspension for gavage at the corresponding concentration (0.06 mg/mL), with a dosage volume of 10 mL/kg. Colchicine, purchased from Sun Chemical Technology (Shanghai) Co., Ltd. with batch no. 49ETRRAS, and was prepared by grinding with 0.5% CMC-Na before administration and into a suspension for gavage at the corresponding concentration (0.06 mg/mL), with a dosage volume of 10 mL/kg.
(§2) The compounds in each group were prepared into a suspension of the corresponding concentration, and the dosage volume was 10 mL/kg.
(§3) The crystalline arthritis model was prepared by intra-articular injection of urate crystals (40 mg/mL in the left ankle joint of each rat). Different doses of the test compounds were given separately by gavage administration. The day of administration was defined as day 1 of the experiment, and the compounds were administered once a day for 10 consecutive days (pre-administration of the drug for 7 days prior to modeling, modeling on day 8, and continuation of the drug for 3 days). The experiment ended on day 10. […]

[1] = test system: gouty arthritis in rats (urate crystals, left ankle joint); assay: Pharmacodynamics experiment A on gouty arthritis in rats: gait score; parameters: Gait Score: scale not given here; settings: 0.6 mg/kg gavage; for Gait versus model group, in words: time points after modeling, P<0.05 or P<0.01; for Gait Score: Mean ± SEM
Protocol: (§4) Compounds 2, 17, 26 and 27 were prepared by grinding with 0.5% CMC-Na into a suspension of the corresponding concentration (0.06 mg/mL) for gavage before administration, and the volume of administration was 10 mL/kg. […] Before use, 0.5% CMC-Na was used for grinding and prepared into a suspension of the corresponding concentration (0.06 mg/mL) for gavage, and the volume of drug administered was 10 mL/kg.
(§5) Each group of subjects was prepared into a suspension of the corresponding concentration, and the administration volume was 10 mL/kg.
(§6) The crystalline arthritis model was prepared by intra-articular injection of urate crystals (40 mg/mL, in the left ankle joint of each rat). Different doses of the test drug were given separately by gavage administration. The day of administration was defined as day 1 of the experiment, and the drug was administered once a day for 10 consecutive days (pre-administration of the drug for 7 days prior to modeling, modeling on day 8, and continuation of the drug for 3 days). The experiment ended on day 10.
The degree of lameness of the modeled joints was observed and scored at the same time point.
(§7) The data obtained from the experiment were statistically analyzed using IBM SPSS Statistics 22.0. All measurements were expressed as Mean±S.E.M s. The data were analyzed using SPSS 22.0 statistical software and variance chi-square test was performed on the parameters.

[2] = test system: gouty arthritis in rats (urate crystals, left ankle joint); assay: Pharmacodynamics experiment A on gouty arthritis in rats: paw volume; settings: for Paw volume versus model group, in words: time points after modeling; for Paw volume: Mean ± SEM
Protocol: as §4, §5, §6
Paw volume was measured before administration, before urate injection, and 2, 4, 8, 10, 24, and 48 h after injection.
as §7

TNF-α = assay: Inflammatory factor experiment A: TNF-α in gouty arthritis rats; settings: synovial tissue of knee joints; dose 0.6 mg/kg gavage; day 10
Protocol: as §1, §2, §3

[3] = test system: gouty arthritis in rats (urate crystals, left ankle joint); assay: Pharmacodynamics experiment A on gouty arthritis in rats: pain score; parameters: Pain score: scale not given here; settings: 0.6 mg/kg gavage; for Pain versus model group, in words: time points after modeling, P<0.05 or P<0.01; for Pain score: Mean ± SEM
Protocol: as §4, §5, §6
The pain level was scored using the flexion and extension joint pain test scoring method at the same time point.
as §7

[4] = 2 h after modeling, 0.6 mg/kg gavage
[5] = 4 h after modeling, 0.6 mg/kg gavage
[6] = 8 h after modeling, 0.6 mg/kg gavage
[7] = 10 h after modeling, 0.6 mg/kg gavage
[8] = 24 h after modeling, 0.6 mg/kg gavage
[9] = 48 h after modeling, 0.6 mg/kg gavage
[10] = before modeling, 0.6 mg/kg gavage once a day

| SMILES | Decreased IL-6 percentage % (IL-6) [%] | Gait versus model group, in words [1] | Gait Score ([1]; 2 h after modeling) | Gait Score ([1]; 4 h after modeling) | Gait Score ([1]; 8 h after modeling) | Gait Score ([1]; 10 h after modeling) | Gait Score ([1]; 24 h after modeling) | Gait Score ([1]; 48 h after modeling) | Gait Score ([1]; before modeling) | Paw volume versus model group, in words ([2]; 0.6 mg/kg gavage) | Paw volume [2, 4] | Paw volume [2, 5] | Paw volume [2, 6] | Paw volume [2, 7] [cm^3] | Paw volume [2, 8] | Paw volume [2, 9] | Paw volume [2, 10] [cm^3] | Decreased TNF-α percentage % (TNF-α) [%] | Pain versus model group, in words [3] | Pain score ([3]; 2 h after modeling) | other results |
| --- | --- | --- | --- | --- | --- | --- | --- | --- | --- | --- | --- | --- | --- | --- | --- | --- | --- | --- | --- | --- | --- |
| COc1cc2c(c(OC)c1OC)-c1cc(C)c(=O)c(OC)cc1[C@@H](NC(C)=O)CC2 [Compound 17, (S)—N-(1,2,3,9-tetramethoxy-11-methyl-10-oxo-5,6,7,10-tetrahydrobenzo[a]heptalen-7-yl)acetamide] | 132.54 | significantly improved the gait at 2 h, 8 h, and 24 h | 1.00 ± 0.00 | 1.20 ± 0.13 | 1.00 ± 0.00 | 1.10 ± 0.10 | 1.10 ± 0.10 | 1.10 ± 0.10 | 0.00 ± 0.00 | significantly reduce the paw volume at 2 h, 8 h, 24 h, and 48 h | 2.54 ± 0.02** cm^3 | 2.58 ± 0.02 cm^3 | 2.54 ± 0.04* cm^3 | 2.55 ± 0.03 | 2.41 ± 0.05** cm^3 | 2.23 ± 0.03*** cm^3 | 2.19 ± 0.03 | 107.16 | significantly improved gait at 2 h, 8 h, and 24 h | 3.10 ± 0.64 | Pain score ([3]; 4 h after modeling): 3.20 ± 0.66; Pain score ([3]; 8 h after modeling): 3.00 ± 0.68; Pain score ([3]; 10 h after modeling): 3.30 ± 0.54; Pain score ([3]; 24 h after modeling): 1.30 ± 0.65; Pain score ([3]; 48 h after modeling): 1.60 ± 0.70; Pain score ([3]; before modeling): 0.00 ± 0.00 |
| COc1cc2c(c(OC)c1OC)-c1ccc(OC3CCOC3)c(=O)cc1[C@@H](NC(C)=O)CC2 (stereo partly drawn) [Compound 26, (S)—N-(1,2,3-trimethoxy-9-oxo-10-[(tetrahydrofuran-3-yl)oxy]-5,6,7,9-tetrahydrobenzo[a]heptalen-7-yl)acetamide] | 113.37 | significantly improved the gait at 2 h, 8 h, and 24 h | 1.00 ± 0.00 | 1.10 ± 0.10 | 1.20 ± 0.13 | 1.30 ± 0.15 | 1.10 ± 0.10 | 1.10 ± 0.10 | 0.00 ± 0.00 | significantly reduce the paw volume at 2 h, 4 h, and 48 h | 2.53 ± 0.04* cm^3 | 2.54 ± 0.03* cm^3 | 2.55 ± 0.04 cm^3 | 2.57 ± 0.05 | 2.47 ± 0.06 cm^3 | 2.34 ± 0.07* cm^3 | 2.19 ± 0.04 | 160.36 | significantly improved gait at 2 h | 3.00 ± 0.56 | Pain score ([3]; 4 h after modeling): 2.90 ± 0.67; Pain score ([3]; 8 h after modeling): 4.30 ± 0.40; Pain score ([3]; 10 h after modeling): 3.80 ± 0.59; Pain score ([3]; 24 h after modeling): 3.20 ± 0.51; Pain score ([3]; 48 h after modeling): 2.20 ± 0.73; Pain score ([3]; before modeling): 0.00 ± 0.00 |
| COc1cc2c(c(OC)c1OC)-c1cc(Br)c(OC)c(=O)cc1[C@@H](NC(C)=O)CC2 [Compound 14, (S)—N-(11-bromo-1,2,3,10-tetramethoxy-9-oxo-5,6,7,9-tetrahydrobenzo[a]heptalen-7-yl)acetamide] | 119.58 |  |  |  |  |  |  |  |  |  |  |  |  |  |  |  |  | 125.78 |  |  |  |
